Here are results for 25 molecules from patent publication US20090270394A1, “CYCLYLAMINE DERIVATIVES AS CALCIUM CHANNEL BLOCKERS” (priority 2008, published 2009).

In the assay the target is T1, Human Cav2.2 channels (Homo sapiens, UniProt Q00975).
T1 construct: expressed in transfected cells
Briefly: Fluorescent assay for Cav2.2 channels using potassium depolarization to initiate channel opening. In kind it is cell-based. The following applies: for inhibition at 10 µM: 10 μM compound, read-out: Cav 2.2 Activity % Inh at 10 μM; for inhibition at 30 µM: 30 μM compound, read-out: Cav 2.2 Activity % Inh at 30 μM; for IC50: 30 mM K (block of open and inactivated channels), read-out: Cav 2.2 Activity IC50 at 30 mM K. The text has this:
Human Cav2.2 channels were stably expressed in HEK293 cells along with alpha2-delta and beta subunits of voltage-gated calcium channels. An inwardly rectifying potassium channel (Kir2.3) was also expressed in these cells to allow more precise control of the cell membrane potential by extracellular potassium concentration. At low bath potassium concentration, the membrane potential is relatively negative, and is depolarized as the bath potassium concentration is raised. In this way, the bath potassium concentration can be used to regulate the voltage-dependent conformations of the channels. […] After the incubation period, Cav2.2 channel opening is triggered by addition of higher concentration of potassium (70 mM final concentration) to further depolarize the cell. The degree of state-dependent block can be estimated from the inhibitory potency of compounds after incubation in different potassium concentrations.
Calcium influx through Cav2.2 channels is determined using a calcium sensitive fluorescent dye in combination with a fluorescent plate reader. Fluorescent changes were measured with either a VIPR (Aurora Instruments) or FLIPR (Molecular Devices) plate reader.
• 1. Seed cells in Poly-D-Lysine Coated 96 or 384-well plate and keep in a 37° C.-10% CO2 incubator overnight • 2. […] Incubate in the dark at 25° C. for 60-70 min • 5. Remove dye, wash cells with 0.1 mL (96-well plate) or 0.06 mL (384-well plate) of 4, 12, 25, or 30 mM Potassium Pre-polarization Buffer (PPB) • 6. […] Incubate in the dark at 25° C. for 30 min • 8. Read cell plate on VIPR instrument, Excitation=480 nm, Emission=535 nm • 9. With VIPR continuously reading, add 0.1 mL (96-well plate) or 0.03 mL (384-well plate) of Depolarization Buffer (DB), which is 2× the final assay concentration, to the cell plate.

T1 sequence (Q00975 whole entry): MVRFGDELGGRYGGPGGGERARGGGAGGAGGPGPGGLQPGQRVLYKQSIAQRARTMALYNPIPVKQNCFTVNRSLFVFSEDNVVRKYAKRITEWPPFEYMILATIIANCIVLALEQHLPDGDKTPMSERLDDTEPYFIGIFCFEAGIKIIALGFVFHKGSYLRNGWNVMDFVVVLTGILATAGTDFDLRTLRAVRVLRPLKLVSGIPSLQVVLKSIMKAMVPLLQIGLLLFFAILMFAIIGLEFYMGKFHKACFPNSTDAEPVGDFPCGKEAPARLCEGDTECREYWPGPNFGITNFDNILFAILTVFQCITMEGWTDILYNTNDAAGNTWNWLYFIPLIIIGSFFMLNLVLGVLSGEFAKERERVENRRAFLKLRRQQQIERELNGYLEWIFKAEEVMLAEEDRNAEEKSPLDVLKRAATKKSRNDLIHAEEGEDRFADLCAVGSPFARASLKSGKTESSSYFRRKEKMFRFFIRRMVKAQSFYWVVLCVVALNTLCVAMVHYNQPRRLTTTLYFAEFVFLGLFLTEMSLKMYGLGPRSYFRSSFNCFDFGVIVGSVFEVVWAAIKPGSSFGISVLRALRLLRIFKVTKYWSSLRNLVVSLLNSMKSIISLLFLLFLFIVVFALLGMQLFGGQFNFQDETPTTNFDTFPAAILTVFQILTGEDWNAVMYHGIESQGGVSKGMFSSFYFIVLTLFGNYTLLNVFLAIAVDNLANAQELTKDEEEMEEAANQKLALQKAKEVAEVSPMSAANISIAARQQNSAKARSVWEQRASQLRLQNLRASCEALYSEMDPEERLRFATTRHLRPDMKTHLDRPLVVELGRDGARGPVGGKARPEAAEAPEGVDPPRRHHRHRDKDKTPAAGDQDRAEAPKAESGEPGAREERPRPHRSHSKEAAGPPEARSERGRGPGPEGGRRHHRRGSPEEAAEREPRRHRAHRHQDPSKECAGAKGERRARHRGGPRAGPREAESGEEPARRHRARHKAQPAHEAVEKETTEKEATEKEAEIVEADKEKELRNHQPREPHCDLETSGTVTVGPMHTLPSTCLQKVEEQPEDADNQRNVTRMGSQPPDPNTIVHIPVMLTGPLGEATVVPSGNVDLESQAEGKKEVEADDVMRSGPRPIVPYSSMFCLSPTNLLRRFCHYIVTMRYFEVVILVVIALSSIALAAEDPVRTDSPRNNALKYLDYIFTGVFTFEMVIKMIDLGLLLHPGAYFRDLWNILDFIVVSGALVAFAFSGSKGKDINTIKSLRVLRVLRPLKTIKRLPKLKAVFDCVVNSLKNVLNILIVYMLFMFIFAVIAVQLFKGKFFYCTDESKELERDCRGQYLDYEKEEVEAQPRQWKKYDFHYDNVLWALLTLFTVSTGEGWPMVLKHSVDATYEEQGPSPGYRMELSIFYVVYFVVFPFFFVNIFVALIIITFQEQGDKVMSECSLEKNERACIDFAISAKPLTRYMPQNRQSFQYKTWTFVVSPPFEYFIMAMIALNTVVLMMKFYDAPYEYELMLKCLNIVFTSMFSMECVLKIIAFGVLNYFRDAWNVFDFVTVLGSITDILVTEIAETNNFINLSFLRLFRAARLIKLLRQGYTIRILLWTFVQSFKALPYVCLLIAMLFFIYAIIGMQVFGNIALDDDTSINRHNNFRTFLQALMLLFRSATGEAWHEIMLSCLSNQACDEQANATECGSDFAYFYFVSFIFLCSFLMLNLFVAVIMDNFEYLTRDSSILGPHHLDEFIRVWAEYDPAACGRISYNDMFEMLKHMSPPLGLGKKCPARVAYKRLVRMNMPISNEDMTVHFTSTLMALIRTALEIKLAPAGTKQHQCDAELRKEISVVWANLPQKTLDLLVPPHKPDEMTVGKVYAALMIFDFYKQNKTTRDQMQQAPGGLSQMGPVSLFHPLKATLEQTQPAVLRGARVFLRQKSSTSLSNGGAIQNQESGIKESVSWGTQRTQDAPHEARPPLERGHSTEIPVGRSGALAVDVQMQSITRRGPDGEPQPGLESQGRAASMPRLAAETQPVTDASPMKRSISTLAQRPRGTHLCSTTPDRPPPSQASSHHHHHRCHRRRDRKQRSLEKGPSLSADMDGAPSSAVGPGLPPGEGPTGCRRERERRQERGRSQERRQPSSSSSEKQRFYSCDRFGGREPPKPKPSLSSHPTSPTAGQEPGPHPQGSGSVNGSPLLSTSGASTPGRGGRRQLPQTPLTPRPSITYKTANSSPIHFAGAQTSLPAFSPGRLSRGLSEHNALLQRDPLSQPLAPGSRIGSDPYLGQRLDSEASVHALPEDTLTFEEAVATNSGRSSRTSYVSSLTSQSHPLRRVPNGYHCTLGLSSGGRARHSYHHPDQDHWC
T1 sequence (P54289 25-1103 partner): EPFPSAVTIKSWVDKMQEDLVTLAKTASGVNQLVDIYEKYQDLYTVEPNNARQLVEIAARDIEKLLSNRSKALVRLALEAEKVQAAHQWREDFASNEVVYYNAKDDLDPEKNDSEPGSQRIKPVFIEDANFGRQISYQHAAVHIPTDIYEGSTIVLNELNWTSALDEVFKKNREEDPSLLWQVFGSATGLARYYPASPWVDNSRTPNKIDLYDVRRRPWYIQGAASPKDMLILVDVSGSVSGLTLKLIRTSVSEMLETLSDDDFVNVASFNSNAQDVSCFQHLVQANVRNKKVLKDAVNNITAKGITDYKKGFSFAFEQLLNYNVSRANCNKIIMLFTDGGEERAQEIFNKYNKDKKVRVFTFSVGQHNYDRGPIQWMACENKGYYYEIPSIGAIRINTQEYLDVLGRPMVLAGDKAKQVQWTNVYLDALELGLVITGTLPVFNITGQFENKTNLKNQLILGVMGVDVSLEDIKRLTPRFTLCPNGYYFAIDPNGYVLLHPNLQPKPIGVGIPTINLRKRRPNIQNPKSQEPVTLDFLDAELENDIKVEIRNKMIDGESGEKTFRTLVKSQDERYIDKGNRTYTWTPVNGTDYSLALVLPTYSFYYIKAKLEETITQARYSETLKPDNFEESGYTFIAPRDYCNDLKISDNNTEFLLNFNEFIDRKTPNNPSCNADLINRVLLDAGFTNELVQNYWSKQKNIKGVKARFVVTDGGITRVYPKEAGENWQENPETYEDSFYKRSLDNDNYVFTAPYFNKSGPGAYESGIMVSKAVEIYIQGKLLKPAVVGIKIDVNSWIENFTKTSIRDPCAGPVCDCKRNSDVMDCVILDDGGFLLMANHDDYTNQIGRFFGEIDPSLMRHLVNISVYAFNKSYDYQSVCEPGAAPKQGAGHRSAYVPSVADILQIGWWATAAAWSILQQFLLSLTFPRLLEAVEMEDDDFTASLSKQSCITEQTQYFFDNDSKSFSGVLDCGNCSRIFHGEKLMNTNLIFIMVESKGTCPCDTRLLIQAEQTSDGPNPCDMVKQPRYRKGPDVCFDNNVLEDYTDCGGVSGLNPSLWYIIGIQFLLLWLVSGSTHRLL
T1 sequence (P54284 whole entry partner): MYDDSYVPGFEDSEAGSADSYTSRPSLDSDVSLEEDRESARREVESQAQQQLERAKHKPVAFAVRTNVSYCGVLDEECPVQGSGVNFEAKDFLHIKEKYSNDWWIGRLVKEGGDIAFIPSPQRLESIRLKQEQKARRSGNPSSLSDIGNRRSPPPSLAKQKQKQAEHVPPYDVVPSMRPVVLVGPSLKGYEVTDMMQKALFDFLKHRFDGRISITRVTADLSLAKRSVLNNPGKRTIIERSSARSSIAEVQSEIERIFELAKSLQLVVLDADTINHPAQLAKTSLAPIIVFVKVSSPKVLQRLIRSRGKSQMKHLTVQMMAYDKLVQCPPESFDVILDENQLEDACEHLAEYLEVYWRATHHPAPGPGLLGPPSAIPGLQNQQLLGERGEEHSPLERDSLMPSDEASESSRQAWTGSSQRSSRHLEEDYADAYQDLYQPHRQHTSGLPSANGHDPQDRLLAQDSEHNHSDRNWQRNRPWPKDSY

What is called IC50 is the midpoint of a concentration-inhibition curve. As to `Cc1cnc(CNC(=O)C2(NC(=O)c3cc(C(C)(C)C)c(O)c(C(C)(C)C)c3)CCCCC2)cn1` [Compound 5, 3,5-di-tert-butyl-4-hydroxy-N-(1-((5-methylpyrazin-2-yl)methylcarbamoyl)cyclohexyl)benzamide], the inhibition at 10 µM was 94.6%, the inhibition at 30 µM worked out at 96.4% and the IC50 was 127 nM.

Turning to `COc1c(C(C)(C)C)cc(C(=O)NC2(C(=O)N3CCN(c4ccccc4)CC3)CCCCC2)cc1C(C)(C)C` [Compound 82, 3,5-di-tert-butyl-4-methoxy-N-(1-(4-phenylpiperazine-1-carbonyl)cyclohexyl)benzamide], the inhibition at 10 µM turned out to be 92.6%, the inhibition at 30 µM came to 101% and the IC50 stood at 70.9 nM.

On to `CC(C)(C#N)c1cccc(C(=O)NC2(C(=O)NCc3ccccc3)CCCCC2)c1` [Compound 123, N-(1-(benzylcarbamoyl)cyclohexyl)-3-(2-cyanopropan-2-yl)benzamide], for which the inhibition at 10 µM stood at 53.5% and the inhibition at 30 µM was 27.3%.

With `CC(C)(C#N)c1cc(C(=O)NC2(C(=O)NCc3cccc(C(F)(F)F)c3)CCCCC2)ccn1` [Compound 119, 2-(2-cyanopropan-2-yl)-N-(1-(3-(trifluoromethyl)benzylcarbamoyl)cyclohexyl)isonicotinamide], the inhibition at 10 µM was 63.1%.

As for `Cc1cc(CNC(=O)C2(NC(=O)c3cc(C(C)(C)C)c(O)c(C(C)(C)C)c3)CCCCC2)nn1C` [Compound 8, 3,5-di-tert-butyl-N-(1-((1,5-dimethyl-1H-pyrazol-3-yl)methylcarbamoyl)cyclohexyl)-4-hydroxybenzamide], the inhibition at 10 µM is 100%, the inhibition at 30 µM amounted to 99% and the IC50 is 129 nM.

With `CC(C)(C)c1cc(C(=O)NC2(C(=O)NCc3nccs3)CC2)cc(C(C)(C)C)c1O` [Compound 1, 3,5-di-tert-butyl-4-hydroxy-N-(1-(thiazol-2-ylmethylcarbamoyl)cyclopropyl)benzamide], the inhibition at 10 µM is 95.2%, the inhibition at 30 µM worked out at 104% and the IC50 turned out to be 1210 nM.

For the molecule `COc1ccc(CNC(=O)C2(NC(=O)c3cc(C(C)(C)C)c(O)c(C(C)(C)C)c3)CCCCC2)cc1` [Compound 67, 3,5-di-tert-butyl-4-hydroxy-N-(1-(4-methoxybenzylcarbamoyl)cyclohexyl)benzamide], the inhibition at 10 µM stood at 94.4%, the inhibition at 30 µM came out at 98.6% and the IC50 stood at 20.6 nM.

Take `CN(C)Cc1ccc(CNC(=O)C2(NC(=O)c3cc(C(C)(C)C)nc(C(C)(C)C)c3)CCOCC2)cc1` [Compound 23, 2,6-di-tert-butyl-N-(4-(4-((dimethylamino)methyl)benzylcarbamoyl)tetrahydro-2H-pyran-4-yl)isonicotinamide]: the inhibition at 10 µM was found to be 87.4%.

For `CC(C)(C)c1cc(C(=O)NC2(C(=O)NCCCN3CCOCC3)CCCCC2)cc(C(C)(C)C)n1` [Compound 99, 2,6-di-tert-butyl-N-(1-(3-morpholinopropylcarbamoyl)cyclohexyl)isonicotinamide], the IC50 was determined as 700 nM.

Regarding `CC(C)(C)c1cc(C(=O)NC2(C(=O)NCc3cccc(C(F)(F)F)c3)Cc3ccccc3C2)cc(C(C)(C)C)c1` [Compound 53, 2-(3,5-di-tert-butylbenzamido)-N-(3-(trifluoromethyl)benzyl)-2,3-dihydro-1H-indene-2-carboxamide], the inhibition at 10 µM was determined as 56.3% and the inhibition at 30 µM was 74.3%.

On to `CC(C)(C(N)=O)c1cccc(C(=O)NC2(C(=O)NCc3cccc(C(F)(F)F)c3)CCCCC2)c1` [Compound 121, 3-(1-amino-2-methyl-1-oxopropan-2-yl)-N-(1-(3-(trifluoromethyl)benzylcarbamoyl)cyclohexyl)benzamide], for which the inhibition at 10 µM was 18.6% and the inhibition at 30 µM came out at 70.8%.

Take `COc1c(C(C)(C)C)cc(C(=O)NC2(C(=O)NCc3nccs3)CCCCC2)cc1C(C)(C)C` [Compound 87, 3,5-di-tert-butyl-4-methoxy-N-(1-(thiazol-2-ylmethylcarbamoyl)cyclohexyl)benzamide]: the inhibition at 10 µM stood at 102%, the inhibition at 30 µM is 104% and the IC50 was determined as 6.04 nM.

Take `CC(C)(C)c1cc(C(=O)NC2(C(=O)NCc3cccc(C(F)(F)F)c3)Cc3ccccc3C2)cc(C(C)(C)C)n1` [Compound 54, 2,6-di-tert-butyl-N-(2-(3-(trifluoromethyl)benzylcarbamoyl)-2,3-dihydro-1H-inden-2-yl)isonicotinamide]: the inhibition at 10 µM turned out to be 46.2% and the inhibition at 30 µM worked out at 68.4%.

In the case of `COc1ccc(CNC(=O)C2(NC(=O)c3cc(C(C)(C)C#N)cc(C(C)(C)C#N)c3)CCOCC2)cc1` [Compound 115, 4-(3,5-bis(2-cyanopropan-2-yl)benzamido)-N-(4-methoxybenzyl)tetrahydro-2H-pyran-4-carboxamide], the inhibition at 10 µM worked out at 53.5% and the inhibition at 30 µM was determined as 73.4%.

For the molecule `CC(C)(C)c1cc(C(=O)NC2(C(=O)Nc3ccncc3)CCCCC2)cc(C(C)(C)C)c1` [Compound 75, 3,5-di-tert-butyl-N-(1-(pyridin-4-ylcarbamoyl)cyclohexyl)benzamide], the inhibition at 10 µM amounted to 93.6%, the inhibition at 30 µM is 101% and the concentration for half-maximal inhibition (IC50) is 545 nM.

In the case of `CC(C)(C)c1cc(C(=O)NC2(C(=O)N3CCOCC3)CCCCC2)cc(C(C)(C)C)n1` [Compound 98, 2,6-di-tert-butyl-N-(1-(morpholine-4-carbonyl)cyclohexyl)isonicotinamide], the IC50 was determined as 248 nM.

As for `Cc1cc(CNC(=O)C2(NC(=O)c3cc(C4CC4)cc(C4CC4)c3)CCCCC2)nn1C` [Compound 6, 3,5-dicyclopropyl-N-(1-((1,5-dimethyl-1H-pyrazol-3-yl)methylcarbamoyl)cyclohexyl)benzamide], the inhibition at 10 µM worked out at 54.7% and the inhibition at 30 µM turned out to be 66%.

In the case of `COc1ccc(CNC(=O)C2(NC(=O)Cc3cc(C(C)(C)C)c(OC)c(C(C)(C)C)c3)CCCCC2)cc1` [Compound 18, 1-(2-(3,5-di-tert-butyl-4-methoxyphenyl)acetamido)-N-(4-methoxybenzyl)cyclohexanecarboxamide], the inhibition at 10 µM worked out at 40.7% and the inhibition at 30 µM stood at 34.5%.

Turning to `CC(C)(C)c1cc(C(=O)NC2(C(=O)NCc3ccccn3)CCCCC2)cc(C(C)(C)C)c1` [Compound 47, 3,5-di-tert-butyl-N-(1-(pyridin-2-ylmethylcarbamoyl)cyclohexyl)benzamide], the inhibition at 10 µM was found to be 93.7%, the inhibition at 30 µM stood at 95.3% and the IC50 amounted to 35.6 nM.

Take `Cc1cc(CNC(=O)C2(NC(=O)c3cc(C(C)(C)C)nc(C(C)(C)C)c3)CCCCC2)no1` [Compound 79, 2,6-di-tert-butyl-N-(1-((5-methylisoxazol-3-yl)methylcarbamoyl)cyclohexyl)isonicotinamide]: the inhibition at 10 µM came out at 97.8%, the inhibition at 30 µM stood at 101% and the concentration for half-maximal inhibition (IC50) is 43.3 nM.

For `CN1CCN(Cc2ccc(CNC(=O)C3(NC(=O)c4cc(C(C)(C)C)nc(C(C)(C)C)c4)CCOCC3)cc2)CC1` [Compound 27, 2,6-di-tert-butyl-N-(4-(4-((4-methylpiperazin-1-yl)methyl)benzylcarbamoyl)tetrahydro-2H-pyran-4-yl)isonicotinamide], the inhibition at 10 µM was found to be 102% and the IC50 was found to be 1040 nM.

For the molecule `CC(C)(C)c1cc(C(=O)NC2(C(=O)Nc3cccc(C(F)(F)F)c3)CCOCC2)ccn1` [Compound 120, 2-tert-butyl-N-(4-(3-(trifluoromethyl)phenylcarbamoyl)tetrahydro-2H-pyran-4-yl)isonicotinamide], the inhibition at 10 µM was determined as 61.2%.

Turning to `CC(C)(C)c1cc(C(=O)NC2(C(=O)NCc3cccc(C(F)(F)F)c3)CCCCC2)cc(C(C)(C)C)c1` [Compound 62, 3,5-di-tert-butyl-N-(1-(3-(trifluoromethyl)benzylcarbamoyl)cyclohexyl)benzamide], the inhibition at 10 µM came to 94.3%, the inhibition at 30 µM is 88.1% and the IC50 amounted to 99.1 nM.

`COc1ccc(C(=O)NC2(C(=O)NCc3cccc(C(F)(F)F)c3)CCCCC2)cc1C(C)(C)C#N` [Compound 118, 3-(2-cyanopropan-2-yl)-4-methoxy-N-(1-(3-(trifluoromethyl)benzylcarbamoyl)cyclohexyl)benzamide]: the inhibition at 10 µM is 75.4%, the inhibition at 30 µM turned out to be 77.6% and the IC50 amounted to 388 nM.

As for `Cc1cc(CNC(=O)C2(NC(=O)c3cc(C(C)(C)C)nc(C(C)(C)C)c3)CCCCC2)nn1C` [Compound 78, 2,6-di-tert-butyl-N-(1-((1,5-dimethyl-1H-pyrazol-3-yl)methylcarbamoyl)cyclohexyl)isonicotinamide], the inhibition at 10 µM was 79.5%, the inhibition at 30 µM was 88.6% and the IC50 was found to be 24.5 nM.
